Reference: US9606114B2, “Multivalent chelators containing a scaffold structure for modifying and organizing of target molecules” (JOHANN WOLFGANG GOETHE-UNIVERSITAT FRANKFURT AM MAIN, priority 2004, dated 2017)
Blank lines part the entries; values can stand above or below the substance they belong to.

Legend:
ifnar2-H10 [1] = target: T1, ifnar2-H10 (Homo sapiens, UniProt P48551); experiment: Fluorescence quantum yield of MCH-fluorophore conjugate after Ni(II) loading and protein binding; assay type: physicochemical
T1 construct: the extracellular domain of ifnar2 with a C-terminal deca-histidine-tag (ifnar2-H10)
T1 sequence (P48551 with tags, fused parts or gaps): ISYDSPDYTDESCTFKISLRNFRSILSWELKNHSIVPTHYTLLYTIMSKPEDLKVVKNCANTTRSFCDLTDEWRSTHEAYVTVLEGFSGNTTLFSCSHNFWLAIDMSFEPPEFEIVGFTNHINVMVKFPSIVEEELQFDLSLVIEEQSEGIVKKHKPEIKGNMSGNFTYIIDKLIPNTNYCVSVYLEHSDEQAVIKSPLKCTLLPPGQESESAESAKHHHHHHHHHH
Experimental: (§1) For a non-covalent fluorescence labeling of histidine-tagged proteins in solution conjugates of tris-NTA with three different fluorophores were synthesized: Oregon Green 488, ATTO 565, FEW-S0387 (FIG. 17).
(§2) After loading with Ni(II)-ions ifnar2-H10 was added to these conjugates and the excess conjugate was separated through gel filtration.
(§3) The different states of the MCH-fluorophore-conjugate could be followed by fluorescence quantum yield. (FIG. 18B). After loading of the chelator-groups with Ni(II)-ions a marked reduction of the fluorescence to about 50% was observed, and after binding to the protein to about 40%.

ifnar2-H10 [2] = experiment: as above; assay type: physicochemical; conditions: relative to unloaded conjugate
Experimental: as §1, §2, §3

ifnar2-H10 [3] = target: T1, ifnar2-H10; experiment: Lateral diffusion of protein anchored via bis-NTA lipid to solid-supported lipid double layer (FRAP); conditions: membrane-anchored via bis-NTA lipid in stearoyl-oleoyl-phosphatidylcholine double layer
From the text: For an attachment of proteins to lipid membranes, a lipid-analogue conjugate of bis-NTA was synthesized that is shown in FIG. 15A.
This lipid was incorporated into unilaminar vesicles of stearoyl-oleoyl-phosphatidylcholine that spontaneously form a fluid solid-supported lipid-double layer on glass surfaces (FIG. 15B). ifnar2-H10 could be specifically anchored at these membranes, whereby the binding activity was completely preserved (FIG. 15B). The lateral diffusion of the membrane-anchored ifnar2-H10 was analyzed through fluorescence-bleaching (fluorescence recovery after photobleaching, FRAP) (FIG. 16). Thereby, a diffusion constant of 1 μm^2/s was determined.

ifnar2-H10 [4] = target: T1, ifnar2-H10; experiment: Immobilization of histidine-tagged protein on chelator-modified surface, detected by RIfS; assay type: binding; conditions: immobilized on tris-NTA modified surface
From the text: The interaction of histidine-tagged proteins with the surfaces as produced in example 1 was characterized in detail by means of reflectometric interference spectroscopy (RIfS). Using this method, the binding of proteins to surfaces can be quantified in real time, as described in Piehler and Schreiber 2001 (Piehler J, Schreiber G. 2001. Fast transient cytokine-receptor interactions monitored in real time by reflectometric interference spectroscopy. Anal. Biochem. 289(2):173-186.)
The immobilization of the extracellular domain of ifnar2 with a C-terminal deca-histidine-tag (ifnar2-H10) to a tris-NTA modified surface (FIG. 7A) is shown in FIG. 7B. Whereas no binding was detectable before loading of the chelator coupled to the surface with Ni(II)-ions, thereafter an overall binding of about 1.5 ng/mm^2 protein was observed that also maintained stably immobilized during rinsing. Nevertheless, this protein could be removed quantitatively with 200 mM imidazole as competitor.
The functionality of the immobilized protein was examined through the binding of the ligand interferon α2 (IFNα2) (FIG. 8).

- reduction of fluorescence compared with Oregon Green conjugate (ifnar2-H10 [1]; Ni(II) loading and protein binding): even more pronounced
Substance: ATTO 565-Tris-NTA

- fluorescence after binding to the protein (ifnar2-H10 [1]; Ni(II)-loaded conjugate bound to ifnar2-H10): about 40%
- fluorescence after loading of the chelator-groups with Ni(II)-ions (ifnar2-H10 [2]): about 50%
Substance: OG 488-Tris-NTA [tris-NTA-Oregon Green]

Substance: ifnar2-H10: extracellular domain of ifnar2 (type I interferon-receptor 2) with a C-terminal deca-histidine-tag
- diffusion constant (ifnar2-H10 [3]): 1 μm^2/s
- immobilized ifnar2-H10 active (binding of ligand IFNα2) (ifnar2-H10 [4]): more than 90%
